# Assays:
# Test in all cases: ≥ marks a high value that may be exact or a test limit, other limits are often not marked, values filed in µg/mL are converted to µM
# [1] = test system: Aeromonas salmonicida NCTC 7812
# [2] = test system: Shigella flexneri ATCC 12022
# [3] = test system: Vibrio anguillarum ATCC 19264
# [4] = test system: Streptococcus iniae 00-1425
# [5] = test system: Enterococcus faecalis ATCC 29212
# [6] = test system: Lactococcus garvieae 00-1422
# [7] = test system: Escherichia coli ATCC 25922
# [8] = test system: Staphylococcus aureus ATCC 29213
# [9] = test system: Staphylococcus aureus ATCC 43300
# [10] = test system: Pseudomonas aeruginosa ATCC 27853
# [11] = test system: Staphylococcus aureus ATCC 33591
# [12] = test system: Staphylococcus epidermidis ATCC 12228
# [13] = test system: Salmonella enterica subsp. enterica serovar Choleraesuis ATCC 10708
# [14] = test system: Klebsiella pneumoniae ATCC 13883
# [15] = test system: Acinetobacter baumannii ATCC 19606
# [16] = test system: Listeria monocytogenes DSM 20600
# [17] = test system: Staphylococcus aureus DSM 2569
# [18] = test system: Micrococcus luteus DSM 20030
# [19] = test system: Listeria fleischmannii DSM 24998
# [20] = test system: Streptococcus mutans UA159
# [21] = test system: Streptococcus sanguinis ATCC 10556
# [22] = test system: Streptococcus sobrinus ATCC 6715
# [23] = test system: Candida albicans ATCC 18804
# [24] = test system: Staphylococcus aureus ATCC 25923
structure (smiles),measurement,setting,value
CC[C@H](C)[C@H](NC(=O)CNC(=O)[C@H](CCCN=C(N)N)NC(=O)[C@H](Cc1ccccc1)NC(=O)[C@@H](NC(=O)[C@H](Cc1cnc[nH]1)NC(=O)[C@H](Cc1cnc[nH]1)NC(=O)[C@H](Cc1ccccc1)NC(=O)[C@@H](N)Cc1ccccc1)[C@@H](C)CC)C(=O)N[C@H](C(=O)N[C@@H](Cc1cnc[nH]1)C(=O)N[C@H](C(=O)NCC(=O)N[C@@H](CCCCN)C(=O)N[C@H](C(=O)N[C@H](C(=O)N[C@@H](Cc1cnc[nH]1)C(=O)N[C@@H](CCCCN)C(=O)N[C@@H](CC(C)C)C(=O)N[C@H](C(=O)N[C@H](C(=O)NCC(=O)O)[C@@H](C)O)C(C)C)[C@@H](C)CC)[C@@H](C)O)C(C)C)C(C)C [FFHHIFRGIVHVGKTIHKLVTG],MIC,[1],≥ 78.6 µM
same,MIC,[2],2.46 µM
same,MIC,[3],4.91 µM
same,MIC,[4],2.46 µM
same,MIC,[5],1.23 µM
same,MIC,[6],0.61 µM
same,MIC,[7],4.91 µM
same,MIC,[8],2.46 µM
CC[C@H](C)[C@H](NC(=O)[C@H](C)NC(=O)[C@H](CO)NC(=O)[C@@H]1CCCN1C(=O)[C@@H](NC(=O)[C@H](CC(C)C)NC(=O)[C@H](CO)NC(=O)[C@H](Cc1ccccc1)NC(=O)[C@H](CC(C)C)NC(=O)[C@@H](N)Cc1ccccc1)[C@@H](C)CC)C(=O)NCC(=O)NCC(=O)N[C@@H](CC(C)C)C(=O)N[C@H](C(=O)N[C@@H](CO)C(=O)N[C@@H](C)C(=O)N[C@@H](Cc1ccccc1)C(=O)N[C@@H](CCCCN)C(=O)O)[C@@H](C)CC [FLFSLIPSAIGGLISAFK],MIC,[9],5 µM
same,MIC,[10],40 µM
same,MIC,[11],5 µM
same,MIC,[12],7.5 µM
same,MIC,[7],50 µM
same,MIC,[13],≥ 60 µM
same,MIC,[8],5 µM
same,MIC,[14],≥ 60 µM
same,MIC,[15],20 µM
CC[C@H](C)[C@H](NC(=O)CNC(=O)[C@H](CC(N)=O)NC(=O)[C@H](Cc1c[nH]c2ccccc12)NC(=O)[C@@H](NC(=O)[C@@H](NC(=O)[C@H](CO)NC(=O)[C@H](CC(C)C)NC(=O)[C@@H](N)Cc1ccccc1)[C@@H](C)O)[C@@H](C)CC)C(=O)N[C@@H](CCCCN)C(=O)N[C@@H](CO)C(=O)N[C@@H](CC(C)C)C(=O)N[C@@H](Cc1ccccc1)C(N)=O [FLSTIWNGIKSLF],MIC,[16],15 µM
same,MIC,[17],8 µM
same,MIC,[18],4 µM
same,MIC,[19],15 µM
CC(C)[C@H](NC(=O)[C@H](CCCCN)NC(=O)[C@H](CCCCN)NC(=O)[C@H](C)NC(=O)[C@H](CCCCN)NC(=O)[C@H](CCCCN)NC(=O)[C@H](Cc1ccccc1)NC(=O)[C@H](Cc1ccccc1)NC(=O)[C@H](CCCCN)NC(=O)[C@H](CCCCN)NC(=O)[C@H](Cc1c[nH]c2ccccc12)NC(=O)CN)C(=O)NCC(=O)N[C@@H](CCCCN)C(=O)O [GWKKFFKKAKKVGK],MIC,[20],≥ 305 µM
same,MIC,[21],≥ 305 µM
same,MIC,[22],≥ 305 µM
CC(C)C[C@H](NC(=O)[C@H](Cc1cnc[nH]1)NC(=O)[C@H](Cc1ccc(O)cc1)NC(=O)[C@H](CCCN=C(N)N)NC(=O)[C@H](Cc1ccc(O)cc1)NC(=O)[C@H](CCCCN)NC(=O)[C@@H](N)CCCCN)C(=O)N[C@@H](CCCCN)C(=O)N1CCC[C@H]1C(=O)N[C@@H](Cc1ccccc1)C(=O)N[C@@H](CO)C(=O)N[C@@H](CCCCN)C(=O)N[C@@H](CCCCN)C(N)=O [KKYRYHLKPFSKK],MIC,[23],≥ 128 µM
same,MIC,[24],> 128 µM
same,MIC,[7],128 µM

# — DBAASP
